Experimental data taken from PubChem BioAssay AID330 (DTP/NCI, 2004).
Several values for one entry are separate records, joined by “and”; a condition that tells them apart may be missing. Equal values may be shown once. Inconclusive results and toxic doses are left out. Rule for the calls: active = survival T/C of 150% or more; inactive = T/C below 125% in these data.

Tested on: P388 leukemia ip, CD2F1 mice, survival T/C
Experiment: NCI In Vivo Anticancer Drug Screen. Data for tumor model P388 Leukemia (intraperitoneal) in CD2F1 (CDF1) mice
Settings: endpoint: median survival time, higher = longer survival
Procedure, shortened: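 Mice carrying the transplanted tumor received test compound or vehicle. Survival was recorded in each group, and the value is the treated-group measurement divided by that of the vehicle-treated control group.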

[1] = dose: 100.0 mg/kg/injection, schedule: Q04DX003 (ip), vehicle: Klucel (hydroxypropylcellulose) (HPC)
[2] = dose: 200.0 mg/kg/injection, schedule: Q04DX003 (ip), vehicle: Klucel (hydroxypropylcellulose) (HPC)
[3] = dose: 50.0 mg/kg/injection, schedule: Q01DX005 (ip), vehicle: Klucel (hydroxypropylcellulose) (HPC)
[4] = dose: 100.0 mg/kg/injection, schedule: Q01DX005 (ip), vehicle: Klucel (hydroxypropylcellulose) (HPC)
[5] = dose: 200.0 mg/kg/injection, schedule: Q01DX005 (ip), vehicle: Klucel (hydroxypropylcellulose) (HPC)
[6] = dose: 6.25 mg/kg/injection, schedule: Q01DX005 (ip), vehicle: saline with Tween-80
[7] = dose: 12.5 mg/kg/injection, schedule: Q01DX005 (ip), vehicle: saline with Tween-80
[8] = dose: 50.0 mg/kg/injection, schedule: Q01DX005 (ip), vehicle: saline with Tween-80
[9] = dose: 50.0 mg/kg/injection, schedule: Q01DX009 (ip), vehicle: Klucel (hydroxypropylcellulose) (HPC)
[10] = dose: 100.0 mg/kg/injection, schedule: Q01DX009 (ip), vehicle: Klucel (hydroxypropylcellulose) (HPC)
[11] = dose: 200.0 mg/kg/injection, schedule: Q01DX009 (ip), vehicle: Klucel (hydroxypropylcellulose) (HPC)
[12] = dose: 100.0 mg/kg/injection, schedule: Q01DX005 (ip), vehicle: saline with Tween-80
[13] = dose: 60.0 mg/kg/injection, schedule: Q01DX005 (ip), vehicle: saline with Tween-80
[14] = dose: 120.0 mg/kg/injection, schedule: Q01DX005 (ip), vehicle: saline with Tween-80
[15] = dose: 240.0 mg/kg/injection, schedule: Q01DX005 (ip), vehicle: saline with Tween-80
[16] = dose: 50.0 mg/kg/injection, schedule: Q01DX009 (ip), vehicle: saline with Tween-80
[17] = dose: 100.0 mg/kg/injection, schedule: Q01DX009 (ip), vehicle: saline with Tween-80
[18] = dose: 200.0 mg/kg/injection, schedule: Q01DX009 (ip), vehicle: saline with Tween-80
[19] = dose: 60.0 mg/kg/injection, schedule: Q01DX005 (ip), vehicle: saline
[20] = dose: 120.0 mg/kg/injection, schedule: Q01DX005 (ip), vehicle: saline
[21] = dose: 240.0 mg/kg/injection, schedule: Q01DX005 (ip), vehicle: saline

Measured: T/C

COc1ccc2nc3cc(Cl)ccc3c(NN3CCN(CCO)CC3)c2c1
inactive: dose: 0.19 mg/kg/injection, schedule: Q01DX009 (ip), vehicle: DMSO 86 % of control | dose: 0.38 mg/kg/injection, schedule: Q01DX009 (ip), vehicle: DMSO 98 % of control and 89 % of control | dose: 0.75 mg/kg/injection, schedule: Q01DX009 (ip), vehicle: DMSO 98 % of control | dose: 1.5 mg/kg/injection, schedule: Q01DX009 (ip), vehicle: DMSO 107 % of control and 95 % of control | dose: 23.0 micrograms/kg/injection, schedule: Q01DX009 (ip), vehicle: DMSO 87 % of control | dose: 47.0 micrograms/kg/injection, schedule: Q01DX009 (ip), vehicle: DMSO 91 % of control | dose: 94.0 micrograms/kg/injection, schedule: Q01DX009 (ip), vehicle: DMSO 89 % of control

COC(=O)NN(C(=O)OC)C12CCCCC1N(C(=O)OC)N(C(=O)OC)c1ccccc12 (stereo not given)
inactive: dose: 100.0 mg/kg/injection, schedule: Q01DX001 (ip), vehicle: Klucel (hydroxypropylcellulose) (HPC) 103 % of control | dose: 200.0 mg/kg/injection, schedule: Q01DX001 (ip), vehicle: Klucel (hydroxypropylcellulose) (HPC) 98 % of control | dose: 400.0 mg/kg/injection, schedule: Q01DX001 (ip), vehicle: Klucel (hydroxypropylcellulose) (HPC) 100 % of control

O=S(=O)(O)CCc1nn[nH]n1
inactive: dose: 100.0 mg/kg/injection, schedule: Q01DX001 (ip), vehicle: saline 100 % of control | dose: 200.0 mg/kg/injection, schedule: Q01DX001 (ip), vehicle: saline 101 % of control | dose: 400.0 mg/kg/injection, schedule: Q01DX001 (ip), vehicle: saline 101 % of control

NC(=S)c1cccc(-c2ccccn2)n1
inactive: [1] 102 % of control | [2] 103 % of control

O=C(Nc1ccccc1C1=NCCN1)Nc1ccccc1C1=NCCN1
inactive: dose: 50.0 mg/kg/injection, schedule: Q01DX005 (ip), vehicle: saline 100 % of control | dose: 100.0 mg/kg/injection, schedule: Q01DX005 (ip), vehicle: saline 106 % of control

CC12C(=O)OC(=O)C1(O)C1c3ccccc3C2c2ccccc21 (stereo not given)
inactive: [3] 101 % of control | [4] 101 % of control | [5] 101 % of control

N#CN(Cc1ccccc1)Cc1ccccc1.[Br][Sn]([c]1ccccc1)([c]1ccccc1)[c]1ccccc1
inactive: dose: 3.12 mg/kg/injection, schedule: Q01DX005 (ip), vehicle: saline with Tween-80 100 % of control | [6] 100 % of control | [7] 91 % of control | [8] 114 % of control

CC(=O)CCN1C(C#N)CCCC1C#N (stereo not given)
inactive: [6] 102 % of control | [7] 91 % of control | dose: 25.0 mg/kg/injection, schedule: Q01DX005 (ip), vehicle: saline with Tween-80 100 % of control

N#C/C(N)=C(\C#N)N=Cc1ccc(-c2ccccc2)cc1
inactive: dose: 100.0 mg/kg/injection, schedule: Q01DX001 (ip), vehicle: saline with Tween-80 90 % of control | dose: 200.0 mg/kg/injection, schedule: Q01DX001 (ip), vehicle: saline with Tween-80 90 % of control | dose: 400.0 mg/kg/injection, schedule: Q01DX001 (ip), vehicle: saline with Tween-80 86 % of control

COc1ccc(Cl)cc1C(=O)NCCc1ccc(CCC(=O)O)cc1
inactive: [9] 99 % of control | [10] 98 % of control | [11] 102 % of control

COCCNC(=S)SCCN(C(C)C)C(C)C
inactive: [8] 104 % of control | [12] 106 % of control

Cc1cnc2cc(Cl)ccc2c1Cl
inactive: [3] 101 % of control | [4] 100 % of control | [5] 103 % of control

C=C1C(C2(C)C=CC(=O)OC3(C)COC(=O)CC32)C(OC=O)C(OC(=O)C(O)C(C)CC)C2(C)C(c3ccoc3)CC(OC(C)=O)C12O (stereo not given)
inactive: dose: 5.0 mg/kg/injection, schedule: Q01DX005 (ip), vehicle: Klucel (hydroxypropylcellulose) (HPC) 96 % of control | dose: 10.0 mg/kg/injection, schedule: Q01DX005 (ip), vehicle: Klucel (hydroxypropylcellulose) (HPC) 98 % of control and 96 % of control | dose: 20.0 mg/kg/injection, schedule: Q01DX005 (ip), vehicle: Klucel (hydroxypropylcellulose) (HPC) 91 % of control and 95 % of control | dose: 40.0 mg/kg/injection, schedule: Q01DX005 (ip), vehicle: Klucel (hydroxypropylcellulose) (HPC) 95 % of control and 96 % of control | dose: 80.0 mg/kg/injection, schedule: Q01DX005 (ip), vehicle: Klucel (hydroxypropylcellulose) (HPC) 102 % of control | dose: 160.0 mg/kg/injection, schedule: Q01DX005 (ip), vehicle: Klucel (hydroxypropylcellulose) (HPC) 87 % of control

CC(=O)/C=C/c1ccc([N+](=O)[O-])cc1
inactive: [9] 100 % of control | [10] 90 % of control | [1] 91 % of control | [11] 98 % of control | [2] 89 % of control | dose: 400.0 mg/kg/injection, schedule: Q04DX003 (ip), vehicle: Klucel (hydroxypropylcellulose) (HPC) 97 % of control

C[C](C)(C)[Sn](=[O])[C](C)(C)C
inactive: dose: 6.25 mg/kg/injection, schedule: Q01DX009 (ip), vehicle: saline 95 % of control | dose: 12.5 mg/kg/injection, schedule: Q01DX009 (ip), vehicle: saline 97 % of control | dose: 25.0 mg/kg/injection, schedule: Q01DX009 (ip), vehicle: saline 99 % of control

Cc1ccc(S(=O)(=O)OCCC(C)OS(=O)(=O)c2ccc(C)cc2)cc1 (stereo not given)
inactive: [13] 100 % of control | [14] 100 % of control | [15] 101 % of control

COc1cc(OC)c(C2SCC(=O)N2c2nnc(C(F)(F)F)s2)cc1OC (stereo not given)
inactive: [13] 100 % of control | [14] 99 % of control | [15] 98 % of control

CCN(CC)Cc1c2c(O)c3c(O)c(C)c4c(c3c1O)C(=O)C(C)(O/C=C/C(OC)C(C)C(OC(C)=O)C(C)C(O)C(C)C(O)C(C)/C=C/C=C(\C)C(=O)N2)O4 (stereo not given)
inactive: dose: 12.5 mg/kg/injection, schedule: Q01DX009 (ip), vehicle: Klucel (hydroxypropylcellulose) (HPC) 115 % of control | dose: 25.0 mg/kg/injection, schedule: Q01DX009 (ip), vehicle: Klucel (hydroxypropylcellulose) (HPC) 93 % of control | [3] 103 % of control | [9] 91 % of control | [16] 110 % of control | [4] 106 % of control | [10] 86 % of control | [17] 90 % of control | [5] 94 % of control | [18] 97 % of control | dose: 400.0 mg/kg/injection, schedule: Q01DX009 (ip), vehicle: Klucel (hydroxypropylcellulose) (HPC) 111 % of control

O=C1CN=CN1
inactive: [19] 96 % of control | [20] 96 % of control | [21] 102 % of control

CCOC(=O)c1ccc(NC(=O)NC2=NCCS2)cc1
inactive: dose: 12.5 mg/kg/injection, schedule: Q01DX009 (ip), vehicle: distilled water + Tween-80 96 % of control | dose: 25.0 mg/kg/injection, schedule: Q01DX009 (ip), vehicle: distilled water + Tween-80 93 % of control | dose: 50.0 mg/kg/injection, schedule: Q01DX009 (ip), vehicle: distilled water + Tween-80 93 % of control | dose: 100.0 mg/kg/injection, schedule: Q01DX009 (ip), vehicle: distilled water + Tween-80 96 % of control | dose: 200.0 mg/kg/injection, schedule: Q01DX009 (ip), vehicle: distilled water + Tween-80 87 % of control

O=C(c1ccccc1)c1c(CO[N+](=O)[O-])n([O-])c2ccccc2[n+]1=O
inactive: dose: 15.0 mg/kg/injection, schedule: Q01DX005 (ip), vehicle: saline with Tween-80 105 % of control | dose: 30.0 mg/kg/injection, schedule: Q01DX005 (ip), vehicle: saline with Tween-80 109 % of control | [13] 104 % of control and 109 % of control

CC(=O)N1CN(C(C)=O)CN(C(C)=O)C1
inactive: [19] 94 % of control | [20] 94 % of control | [21] 100 % of control

COCCCNC(=O)c1nc2ccccc2c(=O)n1NC(=O)Cc1ccccc1
inactive: [8] 95 % of control | [12] 95 % of control | dose: 200.0 mg/kg/injection, schedule: Q01DX005 (ip), vehicle: saline with Tween-80 95 % of control

COc1cc(Br)cc(OC)c1N
inactive: [16] 97 % of control | [17] 100 % of control | [18] 105 % of control
